Assay in all cases: inhibition of tumour cell growth, NCI panel, 48 h
Test [1] concerns A498 renal.
The subject of test [2] is NCI-H522 lung.
The subject of test [3] is RPMI-8226 leukemia.
Test [4] deals with SF-268 CNS.
In test [5] the test system is SK-OV-3 ovarian.
Test [6] concerns SNB-19 CNS.
Test [7] has as its system SR leukemia.
Test [8] deals with SW-620 colon.
In test [9] the test system is UO-31 renal.
In test [10] the test system is UACC-257 melanoma.

Molecules are shown by their SMILES.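 Where inhibition never reached the appropriate level, the endpoint shown equals the highest concentration tested. Otherwise, values were interpolated linearly from a five-concentration, 48-hour dose response in 96-well plates. GI50 = concentration required for 50% inhibition of growth. Definition used: TGI = concentration required for complete inhibition of growth.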

Regarding `CCOC(=O)C1C(=O)C(=O)N2CCc3c([nH]c4ccccc34)C12` (stereo unspecified), the TGI in test [1], in [2], in test [3], in test [4], in [5] and in test [6] was above 100 µM in each case. In addition, the TGI in test [7], in test [8] and in test [9] was above 100 µM in each case.
Take `CCn1c(SC)nnc1-c1cc2c([nH]c3ccccc32)c(-c2cccc(O)c2)n1`: the GI50 was 1.42 µM in [1]; 1.06 µM in test [2]; 1.58 µM in test [3]; 3.42 µM in test [4]; 2.44 µM in [5]; 4.16 µM in [6]. For the same molecule, the values for the GI50 in test [7], in test [8] and in [9] were 0.34 µM, 1.44 µM and 1.94 µM, respectively. Besides, the TGI turned out to be 10.9 µM in [1]; 11.8 µM in [2]; 10.2 µM in [3]; 25.5 µM in test [4]; 6.3 µM in test [5]; 47 µM in test [6]. In addition, the figures for the TGI in test [7], in test [8] and in test [9] were above 100 µM, above 100 µM and 15.8 µM, respectively.
For the molecule `O=C(Nc1ccccc1)Oc1ccccc1C1CCCCC1`, the TGI in test [1] is above 100 µM; in test [3], 52 µM; in test [4], above 100 µM; in test [5], above 100 µM; in test [6], above 100 µM; in test [7], 55.7 µM. Also, the TGI was 72.5 µM in [8], 40.2 µM in test [10] and 74.3 µM in [9].
As for `CCCNc1ncnc2c1cnn2C`, the TGI in test [1], in test [2], in test [3], in test [4], in test [5] and in test [6] was above 100 µM throughout. In addition, the TGI in test [7], in test [8] and in test [10] was above 100 µM each time.
`CC1CC2C(=O)N(c3ccccc3)C(=O)C2c2[nH]c3ccccc3c21` (stereo unspecified): the TGI in test [1] is above 100 µM; in [3], above 100 µM; in test [4] it was above 100 µM; in [5], 36.7 µM; in test [7], above 100 µM; in [8], above 100 µM.
As for `CCCCc1c2c(nc3c1CC/C(=C\c1ccccc1)C3=O)CCCC2`, the TGI came out at 6.37 µM in test [2]; 7.04 µM in test [3]; 12.6 µM in test [4]; 22.9 µM in test [5]; 12.6 µM in [6]; 11.5 µM in [7]. For the same molecule, the TGI in test [8] was found to be 5.32 µM; in test [10], 18.3 µM; in test [9], 19.1 µM.
As for `CC(=O)OCC1OC(OC(C)=O)C(NC#N)C(OC(C)=O)C1OC(C)=O` (stereo unspecified), the TGI in test [1], in test [2], in test [3], in test [4], in test [5] and in test [6] was above 100 µM each time. The TGI in test [7], in [8] and in test [9] was above 100 µM each time.
For `NC1CC(n2ccc(=O)[nH]c2=O)OC1C(O)CO` (stereo unspecified), the TGI in [2], in test [3], in test [4], in [5], in test [6] and in test [7] was above 100 µM throughout. Besides, the TGI in test [8], in test [10] and in test [9] was above 100 µM each time.
As to `O=C(Nc1cccc(C(F)(F)F)c1)Nc1ccc(OCc2nnc(-c3ccccc3)o2)c(F)c1`, the GI50 in test [1] was 3.38 µM; in [3], 1.67 µM; in [4], 12.3 µM; in test [5], 5.57 µM; in test [6], 4.4 µM; in test [7], 2.23 µM. The GI50 is 4.08 µM in [8], 6.38 µM in test [10] and 3.11 µM in test [9]. For the same molecule, the TGI in [1] was found to be 25.8 µM; in test [3] it was 6.2 µM; in [4] it was 78.2 µM; in [5], 27.3 µM; in test [6], 35.5 µM; in [7], 9.65 µM. The TGI was above 100 µM in test [8], 37.9 µM in test [10] and 21 µM in test [9].
Regarding `O=C1NC2(CCCCC2)C2=C1CCCCC2`, the TGI in test [1], in test [2], in test [4], in test [5], in test [6] and in test [7] was above 100 µM throughout. For the same molecule, the TGI in test [8], in test [10] and in test [9] was above 100 µM each time.
`Clc1ccc(N=CNc2ccc(-c3nc4ccccc4[nH]3)cc2)cc1`: the GI50 in test [2] was above 100 µM; in test [3], 7.57 µM; in test [4] it was 19.6 µM; in test [5], above 100 µM; in [6] it was above 100 µM; in test [7], 39.6 µM. The GI50 is above 100 µM in test [8], above 100 µM in test [10] and 13.9 µM in test [9]. In addition, the TGI in [2], in test [3], in test [4], in [5], in test [6] and in [7] was above 100 µM each time. For the same molecule, the TGI in test [8], in [10] and in test [9] was above 100 µM in each case.
As to `CN1OC(CO)CC12C1CC3CC(C1)CC2C3` (stereo unspecified), the TGI in test [1], in test [2], in test [3], in test [4], in test [5] and in test [6] was above 100 µM throughout. Besides, the TGI in test [7], in test [8] and in test [9] was above 100 µM each time.
Take `COC(=O)CCSC(=O)Nc1ccccc1Cl`: the TGI was above 100 µM in test [1]; 28.1 µM in test [2]; above 100 µM in test [3]; above 100 µM in [4]; above 100 µM in test [6]; above 100 µM in test [7]. For the same molecule, the TGI in [8], in test [10] and in test [9] was above 100 µM in each case.

The values are drawn from PubChem BioAssay (NCI).
